Source: patent EP4656185A1, “NOVEL MOLECULAR ASSEMBLY OF AXITINIB” (Scai Therapeutics Co., Ltd., priority 2024, dated 2025)

Test: Solubility (dissolution concentration) of axitinib polymorph at pH 1 and pH 2
Format: physicochemical
Experimental: Experimental Example 4. Solubility of new axitinib polymorph (SCAI-Form)
Method for measuring solubility at pH 1: Stirred for 15 minutes at a concentration of 5 mg/mL, and then filtered, diluted 10 times with DW, and analyzed. (The value calculated as [measured value x 10] is described in the results)
Method for measuring solubility at pH 2: Stirred for 15 minutes at a concentration of 1 mg/mL, and then filtered, analyzed, and shown in Table 6.

Row | Compound | Dissolution concentration at pH 1 (pH 1, stirred for 15 minutes at 5 mg/mL, filtered, diluted 10 times with DW, value = measured value x 10) | Dissolution concentration at pH 2 (pH 2, stirred for 15 minutes at 1 mg/mL, filtered, analyzed) | solubility of SCAI-Form relative to API (comparison with Axitinib API, from Table 6 (pH 1 and pH 2))
1 | 6-[2-(methylcarbamoyl)phenylsulfanyl]-3-E-[2-(pyridin-2-yl)ethenyl]indazole [API] | 2.661 mg/mL | 0.073 mg/mL | 
2 | CNC(=O)c1ccccc1Sc1ccc2c(/C=C/c3ccccn3)n[nH]c2c1 [SCAI-Form, axitinib] |  |  | about twice higher
